In general, IC50 refers to the concentration needed to halve the response being measured.

Holding throughout (format): functional, cell-based
One experiment deals with HOP-62. As to the kind of experiment: Cytotoxicity against Homo sapiens (human) HOP62 cells assessed as growth inhibition after 48 hr by trypan blue exclusion assay. The conditions noted are these: HOP-62, 48 h.
The subject of another experiment is SF-295. As to the kind of experiment: Cytotoxicity against Homo sapiens (human) SF295 cells assessed as growth inhibition after 48 hr by trypan blue exclusion assay. As to conditions: SF-295, 48 h.
In the next experiment the test system is HeLa. In words: Cytotoxicity against Homo sapiens (human) HeLa cells assessed as growth inhibition after 48 hr by trypan blue exclusion assay.
The next experiment relates to PC-3. In words: Cytotoxicity against Homo sapiens (human) PC3 cells assessed as growth inhibition after 48 hr by trypan blue exclusion assay. The conditions noted are these: PC-3, 48 h.
The nature of experiment [1]: Cytotoxicity against Homo sapiens (human) 502713 cells assessed as growth inhibition after 48 hr by trypan blue exclusion assay. As to conditions: Homo sapiens, 502713, 48 h.
Another experiment deals with IMR-32. As to the kind of experiment: Cytotoxicity against Homo sapiens (human) IMR32 cells assessed as growth inhibition after 48 hr by trypan blue exclusion assay. The conditions noted are these: IMR-32, 48 h.
Another experiment deals with SK-N-SH. In words: Cytotoxicity against Homo sapiens (human) SK-N-SH cells assessed as growth inhibition after 48 hr by trypan blue exclusion assay.
The next experiment deals with SW-620. In words: Cytotoxicity against Homo sapiens (human) SW620 cells assessed as growth inhibition after 48 hr by trypan blue exclusion assay. The conditions noted are these: SW-620, 48 h.

On to `CCCCCCC[C@H](C/C=C/CCC(=O)NCCc1ccccc1)OC` [PHENETHYL(7R,4E)-METHOXYTETRADECENAMIDE], for which the concentration for half-maximal inhibition (IC50) (with HOP-62; with SF-295; in the experiment on HeLa; with PC-3; in experiment [1]; in the experiment on IMR-32) was > 100 µM each time. Besides, the IC50 with SK-N-SH was 95.8 µM; in the experiment on SW-620, > 100 µM.

For the compound `CCCCCCC[C@@H](C/C=C/CCC(=O)NCc1ccccc1)OC`, the half-inhibitory concentration (IC50) (in the experiment on HOP-62; in the experiment with SF-295; in the experiment with HeLa; in the experiment with PC-3; in experiment [1]; with IMR-32) was > 100 µM in each case. The IC50 in the experiment with SK-N-SH and with SW-620 was > 100 µM in each case.

Take `CCCCCCC[C@@H](C/C=C/CCC(=O)N1CCCCC1)OC`: the concentration for half-maximal inhibition (IC50) (in the experiment with HOP-62; in the experiment on SF-295; with HeLa; in the experiment on PC-3; in experiment [1]; with IMR-32) was > 100 µM throughout. Further, the IC50 with SK-N-SH and in the experiment on SW-620 was > 100 µM in each case.

`CCCCCCC[C@@H](C/C=C/CCC(=O)Nc1ccc(Cl)cc1)OC`: the IC50 (with HOP-62; with SF-295; in the experiment with HeLa; with PC-3; in experiment [1]; in the experiment on IMR-32) was > 100 µM each time. Further, the IC50 in the experiment with SK-N-SH was 72.9 µM; in the experiment on SW-620, > 100 µM.

With `CCCCCCC[C@@H](C/C=C/CCC(=O)NCc1ccc(C(F)(F)F)cc1)OC`, the IC50 with HOP-62 was > 100 µM; in the experiment with SF-295, > 100 µM; with HeLa, > 100 µM; in the experiment on PC-3 it was > 100 µM; in experiment [1], 29.8 µM; with IMR-32 it was > 100 µM. Also, the half-inhibitory concentration (IC50) with SK-N-SH is 62.9 µM; in the experiment on SW-620 it was > 100 µM.

With `CCCCCCC[C@@H](C/C=C/CCC(=O)NCC(C)C)OC`, the IC50 (in the experiment on HOP-62; in the experiment with SF-295; in the experiment with HeLa; in the experiment with PC-3; in experiment [1]; in the experiment on IMR-32) was > 100 µM each time. For the same compound, the half-inhibitory concentration (IC50) with SK-N-SH and in the experiment with SW-620 was > 100 µM in each case.

For the compound `CCCCCCC[C@H](O)C/C=C/CCC(=O)N1CCCC1`, the IC50 (with HOP-62; in the experiment with SF-295; in the experiment with HeLa; with PC-3; in experiment [1]; with IMR-32) was > 100 µM each time. Besides, the IC50 with SK-N-SH was 120 µM; with SW-620, > 100 µM.

With `CCCCCCC[C@H](O)C/C=C/CCC(=O)N1CCCCC1`, the half-maximal inhibitory concentration (IC50) (in the experiment on HOP-62; in the experiment with SF-295; in the experiment with HeLa; in the experiment on PC-3; in experiment [1]; in the experiment on IMR-32) was > 100 µM in each case. The results for the 50% inhibitory concentration (IC50) in the experiment on SK-N-SH and with SW-620 were 100 µM and > 100 µM, respectively.

Take `CCCCCCC[C@@H](C/C=C/CCC(=O)NCCc1ccccc1)OC` [HERMITAMIDE A]: the IC50 (in the experiment on HOP-62; with SF-295; in the experiment with HeLa; in the experiment on PC-3; in experiment [1]; in the experiment on IMR-32) was > 100 µM throughout. Besides, the half-inhibitory concentration (IC50) with SK-N-SH and with SW-620 was > 100 µM in each case.

On to `CCCCCCC[C@H](C/C=C/CCC(=O)NCC(C)C)OC`, for which the IC50 (in the experiment on HOP-62; in the experiment on SF-295; with HeLa; in the experiment with PC-3; in experiment [1]; in the experiment with IMR-32) was > 100 µM each time. For the same compound, the 50% inhibitory concentration (IC50) with SK-N-SH and in the experiment on SW-620 was > 100 µM throughout.

As for `CCCCCCC[C@@H](C/C=C/CCC(=O)N1CCCC1)OC`, the IC50 (in the experiment with HOP-62; in the experiment on SF-295; in the experiment with HeLa; in the experiment with PC-3; in experiment [1]; in the experiment on IMR-32) was > 100 µM in each case. In addition, the IC50 in the experiment on SK-N-SH and in the experiment on SW-620 was > 100 µM in each case.

Turning to `CCCCCCC[C@@H](C/C=C/CCC(=O)NCc1ccc(F)cc1)OC`, the IC50 (in the experiment with HOP-62; with SF-295; in the experiment on HeLa; in the experiment with PC-3; in experiment [1]; in the experiment with IMR-32) was > 100 µM each time. For the same compound, the IC50 in the experiment with SK-N-SH and in the experiment on SW-620 was > 100 µM throughout.

For `CCCCCCC[C@H](O)C/C=C/CCC(=O)NCCc1ccccc1`, the IC50 (with HOP-62; in the experiment on SF-295; in the experiment on HeLa; in the experiment with PC-3; in experiment [1]; with IMR-32) was > 100 µM each time. Further, the IC50 is 164 µM in the experiment with SK-N-SH and > 100 µM in the experiment with SW-620.

As for `CCCCCCC[C@H](C/C=C/CCC(=O)N1CCCCC1)OC`, the half-inhibitory concentration (IC50) (in the experiment with HOP-62; in the experiment with SF-295; with HeLa; with PC-3; in experiment [1]; in the experiment with IMR-32) was > 100 µM each time. Moreover, the values for the IC50 with SK-N-SH and in the experiment on SW-620 were 118 µM and > 100 µM, respectively.

As for `CCCCCCC[C@H](C/C=C/CCC(=O)N1CCCC1)OC`, the IC50 (with HOP-62; in the experiment on SF-295; in the experiment on HeLa; with PC-3; in experiment [1]; in the experiment on IMR-32) was > 100 µM in each case. Also, the IC50 with SK-N-SH and with SW-620 was > 100 µM each time.

For the compound `CCCCCCC[C@H](O)C/C=C/CCC(=O)NCC(C)C`, the half-maximal inhibitory concentration (IC50) (with HOP-62; in the experiment with SF-295; with HeLa; in the experiment with PC-3; in experiment [1]; in the experiment on IMR-32) was > 100 µM each time. Besides, the IC50 in the experiment with SK-N-SH and in the experiment with SW-620 was > 100 µM throughout.

Turning to `CCCCCCC[C@@H](C/C=C/CCC(=O)Nc1c(OC)cc(Cl)cc1OC)OC`, the IC50 in the experiment with HOP-62 is > 100 µM; in the experiment with SF-295, > 100 µM; in the experiment with HeLa it was > 100 µM; in the experiment on PC-3 it was > 100 µM; in experiment [1] it was 64.1 µM; in the experiment with IMR-32, > 100 µM. In addition, the IC50 with SK-N-SH and in the experiment with SW-620 was > 100 µM throughout.

With `CCCCCCC[C@@H](C/C=C/CCC(=O)NCc1ccc(OC)cc1)OC`, the half-maximal inhibitory concentration (IC50) (in the experiment with HOP-62; with SF-295; in the experiment on HeLa; in the experiment on PC-3; in experiment [1]; with IMR-32) was > 100 µM throughout. Further, the concentration for half-maximal inhibition (IC50) in the experiment on SK-N-SH and in the experiment with SW-620 was > 100 µM in each case.

As for `CCCCCCC[C@@H](C/C=C/CCC(=O)Nc1ccc(Br)cc1)OC`, the IC50 is 174 µM in the experiment on HOP-62; > 100 µM in the experiment on SF-295; > 100 µM in the experiment with HeLa; > 100 µM in the experiment on PC-3; > 100 µM in experiment [1]; > 100 µM in the experiment on IMR-32. Further, the IC50 with SK-N-SH is 65.7 µM; in the experiment with SW-620, > 100 µM.

Values taken from ChEMBL document CHEMBL3045453, “Novel malyngamide structural analogs: synthesis and biological evaluation” (Med Chem Res, 2013).
